Like-named read-outs stand apart in the source and are kept apart here. Bounds are passed on as bounds.

The target of one test is T1, mouse vas deferens (Mus musculus, UniProt P32300).
T1 construct: Vasa deferentia were removed from mice; from tissue; host or cells: mouse vas deferens
As to the kind of experiment: cell-based. Format: cell-based.

Another test relates to guinea pig ileum. The experiment in a line: Inhibition of electrically stimulated contraction of guinea pig ileum. Type of test: cell-based. The settings on record: Cavia porcellus, mean of (n) experiments, read-out: Guinea Pig lleum ED50.
In test [1] the target is T2, Delta Receptor (Rattus norvegicus, UniProt P33533).
T2 construct: Rat (Sprague-Dawley) brain membranes were prepared; from tissue; host or cells: rat (Sprague-Dawley) brain membranes
T2 sequence (P33533 whole entry): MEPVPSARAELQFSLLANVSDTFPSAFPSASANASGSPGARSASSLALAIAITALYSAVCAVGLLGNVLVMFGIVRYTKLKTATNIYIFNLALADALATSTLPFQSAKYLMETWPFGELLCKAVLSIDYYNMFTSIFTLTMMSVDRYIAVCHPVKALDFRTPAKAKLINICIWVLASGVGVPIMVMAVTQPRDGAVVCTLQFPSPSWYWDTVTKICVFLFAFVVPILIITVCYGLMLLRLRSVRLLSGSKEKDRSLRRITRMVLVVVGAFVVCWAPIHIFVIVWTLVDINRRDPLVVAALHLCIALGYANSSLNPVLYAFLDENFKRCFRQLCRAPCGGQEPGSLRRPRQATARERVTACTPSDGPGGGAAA
The experiment in a line: Delta receptor binding, rat brain membranes. Details: species or system rat (Sprague-Dawley).

The target of the next test is T3, Mu Receptor (Rattus norvegicus, UniProt P33535).
T3 construct: Rat (Sprague-Dawley) brain membranes were prepared; from tissue; host or cells: rat (Sprague-Dawley) brain membranes
T3 sequence (P33535 whole entry): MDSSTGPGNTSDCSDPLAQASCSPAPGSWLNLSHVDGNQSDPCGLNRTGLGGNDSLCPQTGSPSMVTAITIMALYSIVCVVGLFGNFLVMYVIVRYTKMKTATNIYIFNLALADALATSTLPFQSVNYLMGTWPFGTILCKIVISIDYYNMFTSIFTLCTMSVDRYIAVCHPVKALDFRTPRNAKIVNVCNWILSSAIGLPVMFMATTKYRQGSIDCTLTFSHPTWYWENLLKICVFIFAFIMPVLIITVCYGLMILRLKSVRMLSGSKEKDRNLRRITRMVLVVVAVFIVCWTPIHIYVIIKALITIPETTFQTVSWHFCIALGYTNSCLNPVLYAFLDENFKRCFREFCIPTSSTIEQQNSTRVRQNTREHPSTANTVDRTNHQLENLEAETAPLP
The experiment in a line: Mu receptor binding, rat brain membranes. Also on record: species or system rat (Sprague-Dawley).

The next test has as its system delta-opioid receptor. The experiment in a line: Tail flick test, injection into brain (icv). Format: in vivo. The settings on record: mice. A general note: Thermal pain tests record how soon the animal reacts.
Test [2] concerns the target delta receptor (Mus musculus, UniProt P32300). As to the kind of experiment: Delta opioid receptor agonist activity. Conditions: in words.
[3] abbreviates: 125I-[D-Ala2,D-Leu5]enkephalin 0.24 nM with mu-agonist morphiceptin analog, 24° C., 60 min, mean of (n) experiments, read-out: Delta Receptor IC50.
The mark [4] stands for this setting: 125I-[D-Ala2,N-MePhe4,Met(O)ol5]enkephalin 0.1 nM, 24° C., 60 min, mean of (n) experiments, read-out: Mu Receptor IC50.
The mark [5] stands for this setting: electrically stimulated, 37° C., mean of (n) experiments, read-out: Mouse Vas Deferens ED50.

T1 sequence (P32300 whole entry): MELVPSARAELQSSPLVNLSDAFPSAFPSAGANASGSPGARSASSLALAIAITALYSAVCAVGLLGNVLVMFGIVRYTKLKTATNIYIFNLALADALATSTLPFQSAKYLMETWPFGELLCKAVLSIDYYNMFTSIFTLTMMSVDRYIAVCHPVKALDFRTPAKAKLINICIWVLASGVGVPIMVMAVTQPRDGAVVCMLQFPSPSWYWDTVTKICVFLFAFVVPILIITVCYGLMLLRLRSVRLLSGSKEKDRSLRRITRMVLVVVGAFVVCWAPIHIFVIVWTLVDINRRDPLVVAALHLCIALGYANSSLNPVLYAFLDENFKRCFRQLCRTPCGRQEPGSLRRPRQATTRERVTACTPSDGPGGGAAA
Sequence of delta receptor (P32300 whole entry): as above

With `C=CCN1C[C@H](C)N(C(c2ccc(C(=O)N(CC)CC)cc2)c2cccc(NC=O)c2)C[C@H]1C` (mixture of isomers) [Example 36, (±)-trans-4-(α-(4-allyl-2,5-dimethyl-1-piperazinyl)-3-formamidobenzyl)-N,N -diethylbenzamide], the IC50 was determined as 2 nM against mouse vas deferens, 1300 nM in the test with guinea pig ileum, 9.1 nM at Delta Receptor [1] (setting [3]) and 260 nM on Mu Receptor (setting [4]).
For `CCN(CC)C(=O)c1ccc(C(C2=C(C)CN(C)C(C)C2)c2cccc(O)c2)cc1` (racemic) [Example 51, (±)-(R*, R*) or (R*, S*)-N,N-diethyl-4-(3-hydroxy-α-(1,2,5,6-tetrahydro-1,3,6-trimethyl-4-pyridyl)benzyl)benzamide], the IC50 on mouse vas deferens (setting [5]) turned out to be 52 nM; in the test with guinea pig ileum, 3000 nM; on Delta Receptor [1] (setting [3]), 2.5 nM; at Mu Receptor (setting [4]), 130 nM.
As for `CCN(CC)C(=O)c1ccc(C(c2cccc(O)c2)N2C[C@@H](C)N(C)[C@@H](C)C2)cc1` (relative stereo) [Compound E], at mouse vas deferens (in words), the “agonist activity in the mouse vas deferens” value is “inactive as an agonist” and the “antagonist activity in the mouse vas deferens” value is reported as “may be a weak antagonist”. Moreover, in the test on delta-opioid receptor, the “analgesic activity in the tail flick test” value is “provide analgesic activity” and the “reversal of analgesia by injection of naloxone or delta-specific antagonists (ICI 174,864 or naltrindole)” value is “reversible”.
As for `C=CCN1C[C@H](C)N([C@H](c2ccc(C(=O)NCC(=O)NCC(=O)O)cc2)c2cccc(O)c2)C[C@H]1C` (relative stereo) [Compound H], the “delta receptor agonist activity” value on delta receptor [2] is given as “delta receptor agonist activity”.
Same read-out and setting: the result for `C=CCN1C[C@H](C)N([C@H](c2ccc(C(=O)N(CC)CCO)cc2)c2cccc(O)c2)C[C@H]1C` (relative stereo) [Compound J] reads “potent delta receptor agonist activity”.
As to `C=CCN1C[C@H](C)N([C@H](c2ccc(C(=O)N(CC)CC)cc2)c2cccc(O)c2)C[C@H]1C` (relative stereo) [Example 6, (±)-4-((αR*)-α-((2S*,5R*)-4-Allyl-2,5-dimethyl-1-piperazinyl)-3-hydroxybenzyl)-N,N-diethylbenzamide], the figures for the IC50 against mouse vas deferens, in the test on guinea pig ileum and on Delta Receptor [1] (setting [3]) were 0.2 nM, 143 nM and 1.8 nM, respectively.
In the case of `C=CCN1C[C@@H](C)N([C@H](c2ccccc2)c2cccc(O)c2)C[C@@H]1C` (relative stereo) [Example 9, (±)-3-((αR*)-α-((2R*,5S*)-4-Allyl-2,5-dimethyl-1-piperazinyl)benzyl)phenol], the IC50 at mouse vas deferens was 40 nM; in the test on guinea pig ileum, 4 nM; at Delta Receptor [1] (setting [3]), 16 nM; on Mu Receptor (setting [4]), 1.1 nM.
Consider `C/C=C\CN1[C@H](C)CN(C(c2ccc(C(=O)N(CC)CC)cc2)c2cccc(O)c2)C[C@@H]1C` (relative stereo) [Example 11, cis-4-(α-(4-((Z)-2-Butenyl)-3,5-dimethyl-1-piperazinyl)-3-hydroxybenzyl)-N,N-diethylbenzamide], for which the IC50 at mouse vas deferens is greater than 10000 nM; in the test with guinea pig ileum it was 3600 nM; on Mu Receptor (setting [4]) it was 600 nM.
The corresponding values for `CCN(CC)C(=O)c1ccc([C@H](c2cccc(O)c2)N2C[C@H](C)NC[C@H]2C)cc1` (relative stereo) [Example 15, (±)-4-((αR*)-α-((2R*,5S*)-2,5-Dimethyl-1-piperazinyl)-3-hydroxybenzyl)-N,N-diethylbenzamide] are 4400 nM, 2700 nM and 120 nM.
As to `C=CCN1C[C@H](C)N([C@H](c2ccc(C(=O)NCC(=O)NCC(=O)O)cc2)c2cccc(O)c2)C[C@H]1C` (relative stereo) [Example 25, (±)-N-(4-((αR*)-α-((2S*,5R*)-4-Allyl-2,5-dimethyl-1-piperazinyl)-3-hydroxybenzyl)benzoyl)glycylglycine], the IC50 was 2 nM against mouse vas deferens, 300 nM with guinea pig ileum, 0.4 nM on Delta Receptor [1] (setting [3]) and 70 nM at Mu Receptor (setting [4]).
For the molecule `CCN(CC)C(=O)c1ccc(C(c2cccc(O)c2)N2C[C@@H](C)N(C)[C@@H](C)C2)cc1` (relative stereo) [Example 34, N,N-Diethyl-4-(3-hydroxy-α-(cis-3,4,5-trimethyl-1-piperazinyl)benzyl)benzamide], the IC50 at mouse vas deferens is greater than 10000 nM; in the test with guinea pig ileum, 3700 nM; at Delta Receptor [1] (setting [3]), 4 nM; on Mu Receptor (setting [4]) it was greater than 10000 nM.
Regarding `C=CCN1C[C@H](C)N([C@H](c2ccc(C(=O)NCCOCCOCCNC(=O)c3ccc([C@H](c4cccc(O)c4)N4C[C@@H](C)N(CC=C)C[C@@H]4C)cc3)cc2)c2cccc(O)c2)C[C@H]1C` (relative stereo) [Example 41, N,N'-((Ethylenedioxy)diethylene)bis(4-((R*)-α-((2S*,5R*)-4-allyl-2,5-dimethyl-1-piperazinyl)-3-hydroxybenzyl)benzamide)], the IC50 worked out at 13 nM on mouse vas deferens (setting [5]), 6.5 nM in the test with guinea pig ileum, 10 nM on Delta Receptor [1] (setting [3]) and 4 nM at Mu Receptor (setting [4]).
On to `C=CCN1C[C@H](C)N([C@H](c2cccc(O)c2)c2cccs2)C[C@H]1C` (relative stereo) [Example 44, (±)-3-((R*)-((2S*,5R*)-4-Allyl-2,5-dimethyl-1-piperazinyl)(2-thienyl)methyl)phenol], for which the IC50 at mouse vas deferens was determined as 37 nM; at Delta Receptor [1] (setting [3]), 11 nM; on Mu Receptor (setting [4]) it was 0.8 nM.
With `C=CCN1C[C@H](C)N([C@H](c2ccc(S(C)(=O)=O)cc2)c2cccc(O)c2)C[C@H]1C` (relative stereo) [Example 54, (±)-3-((αR*)-α-((2S*,5R*)-4-allyl-2,5-dimethyl-1-piperazinyl)-4-(methylsulfonyl)benzyl)phenol], the IC50 on mouse vas deferens stood at 42 nM; in the test with guinea pig ileum, 5600 nM; on Delta Receptor [1] (setting [3]), 1.3 nM; at Mu Receptor (setting [4]), 40 nM.
The corresponding values for `C=CCN1C[C@H](C)N([C@H](c2ccc(S(=O)(=O)N(CC)CC)cc2)c2cccc(O)c2)C[C@H]1C` (relative stereo) [Example 59, (±)-4-((αR*)-α-((2S*,5R*)-4-Allyl-2,5-dimethyl-1-piperazinyl)-3-hydroxybenzyl)-N,N-diethylbenzenesulfonamide] are 2.6 nM, 1800 nM, 20 nM and 100 nM.
As to `C=CCN1C[C@H](C)N([C@H](c2ccc(C(=O)N(CC)CCO)cc2)c2cccc(O)c2)C[C@H]1C` (relative stereo) [Example 60, (±)-4-((αR*))-α-((2S*,5R*)-4-Allyl-2,5-dimethyl-1-piperazinyl)-3-hydroxy-benzyl)-N-ethyl-N-(2-hydroxyethyl)benzamide], the IC50 on mouse vas deferens was determined as 0.3 nM; in the test on guinea pig ileum it was 86 nM; on Delta Receptor [1] (setting [3]) it was 6.5 nM; at Mu Receptor (setting [4]) it was 20 nM.
With `C=CCN1C[C@H](C)N([C@@H](c2cccc(O)c2)c2cccc(C(=O)N(CC)CC)c2)C[C@H]1C` (relative stereo) [Example 84, (±)-3-((αR*)-α-((2S*,5R*)-4-allyl-2,5-dimethyl-1-piperazinyl)-3-hydroxybenzyl)-N,N-diethylbenzamide], the IC50 on mouse vas deferens is 8.6 nM; with guinea pig ileum, 10 nM; at Delta Receptor [1] (setting [3]) it was 1.6 nM.
On to `C=C(C)CN1C[C@H](C)N(C(c2ccc(S(=O)(=O)N(CC)CC)cc2)c2cccc(O)c2)C[C@H]1C` (stereo partly shown) [Compound D], for which, at mouse vas deferens (in words), the “agonist activity in the mouse vas deferens” value was “potent agonist”. In the test on delta-opioid receptor, the “analgesic activity in the tail flick test” value is recorded as “provide analgesic activity” and the “reversal of analgesia by injection of naloxone or delta-specific antagonists (ICI 174,864 or naltrindole)” value was “reversible”.
With `C=CCN1C[C@H](C)N([C@H](c2ccc(C(=O)N(CC)CC)cc2)c2cccc(O)c2)C[C@H]1C` [Example 6a, (+)-4-((αR)-α-((2S,5R)-4-Allyl-2,5-dimethyl-1-piperazinyl)-3-hydroxybenzyl)-N,N-diethylbenzamide], the IC50 against mouse vas deferens was found to be 0.17 nM; with guinea pig ileum, 84 nM; on Delta Receptor [1] (setting [3]) it was 1.2 nM.
Take `CCN(CC)C(=O)c1ccc([C@H](c2cccc(O)c2)N2C[C@H](C)N(C)C[C@@H]2C)cc1` [Example 12, (+)-N,N-diethyl-4-(3-hydroxy-(αR)-α-((2S,5S)-2,4,5-trimethyl-1-piperazinyl)benzyl)benzamide]: the IC50 against mouse vas deferens is 2 nM; with guinea pig ileum, greater than 10000 nM; on Delta Receptor [1] (setting [3]), 1.2 nM; at Mu Receptor (setting [4]) it was 150 nM.
With `C=CCN1C[C@H](C)N([C@H](c2cccc(O)c2)c2cccs2)C[C@H]1C` [Example 67, (-)-3-((R)-((2S,5R)-4-Allyl-2,5-dimethyl-1-piperazinyl)(2-thienyl)methyl)phenol], the IC50 on mouse vas deferens (read-out: Mouse Vas Deferens ED50, electrically stimulated, 37° C., mean of (n) experiments) came to 20 nM; on Delta Receptor [1] (read-out: Delta Receptor IC50, 125I-[D-Ala2,D-Leu5]enkephalin 0.24 nM with mu-agonist morphiceptin analog, 24° C., 60 min, mean of (n) experiments), 27 nM; at Mu Receptor (read-out: Mu Receptor IC50, 125I-[D-Ala2,N-MePhe4,Met(O)ol5]enkephalin 0.1 nM, 24° C., 60 min, mean of (n) experiments), 0.3 nM.

Source of the values: US5658908A (priority 1992, dated 1997).
